Legend:
Assay type in all cases: biochemical
MMP-3 = biological target: T1, MMP-3 (Homo sapiens, UniProt P08254); experiment: Determination of inhibition constant (Ki) for MMP-3, fluorogenic substrate; conditions: footnote: results are identical for MMP-1, MMP-2, MMP-3, MMP-13 and MMP-14, read-out: MMP Ki app
T1 construct: The active MMP-3 was obtained by treatment of proMMP-3 with trypsin; endogenous in cells; host or cells: human rheumatoid synovial fibroblasts stimulated with macrophage-conditioned medium (secreted proenzyme purified from the medium)
T1 sequence (P08254 100-477): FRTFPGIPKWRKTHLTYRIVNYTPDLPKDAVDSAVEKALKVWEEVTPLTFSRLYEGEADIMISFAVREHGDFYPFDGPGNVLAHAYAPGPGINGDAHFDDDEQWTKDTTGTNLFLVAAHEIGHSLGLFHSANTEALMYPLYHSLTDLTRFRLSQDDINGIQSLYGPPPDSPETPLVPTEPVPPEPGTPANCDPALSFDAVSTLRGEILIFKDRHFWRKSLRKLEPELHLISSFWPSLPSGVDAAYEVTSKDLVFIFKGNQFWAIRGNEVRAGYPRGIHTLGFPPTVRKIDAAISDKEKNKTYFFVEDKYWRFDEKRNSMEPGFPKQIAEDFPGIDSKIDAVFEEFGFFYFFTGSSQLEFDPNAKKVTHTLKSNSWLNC
Protocol: ProMMP-3 (EC 3.4.24.17; Stromelysin-1) was purified from culture medium of human rheumatoid synovial fibroblasts stimulated with macrophage-conditioned medium according to Okada, Y. et al., J. Biol. Chem. 261, 14245-14255 (1986). The active MMP-3 was obtained by treatment of proMMP-3 with trypsin (5 μg/mL) at 37° C. for 30 minutes, followed by addition of soybean trypsin inhibitor (50 μg/mL). Aliquots of the activated MMP-3 were stored at −20° C.
The activated MMP-3 is assayed using a fluorogenic substrate, Mca-Pro-Leu-Gly-Leu-Dpa-Ala-Arg-NH2, Knight, C.G. et al., FEBS Lett. 296, 263-266 (1992), at 37° C. in an assay buffer containing 50 mM Tris, pH 7.6, 0.2 M sodium chloride, 50 mM calcium chloride, and 0.02% Brij-35. The increase in fluorescence due to cleavage of Gly-Leu peptide bond by MMP-3 was monitored with Perkin-Elmer LS50B Fluorimeter (λex 328 nm, λem 393 nm, excitation slit 2.5, emission slit 10). Substrate and inhibitor stock solutions were made in DMF and 0.1 % HCl-DMF, respectively. For determination of Ki values for MMP-3 inhibitors, a series of intermediate inhibitor solutions were prepared in 0.1% HCl-DMF and 1 or 2 μL of the diluted inhibitor solution was mixed with 1 μL of 2 mM substrate solution in DMF in a quartz cuvette containing 2 mL of assay buffer. The enzyme (10 μL of 0.2 μM MMP-3 dilution in assay buffer) was added at the last to start the reaction. For routine measurement of a Ki value for a reversible, competitive inhibitor, the initial rates in the presence of at least four inhibitor concentrations (two concentrations above Ki and two concentrations below Ki) were measured using [S]=1 μM (<<Km) and [MMP-3]=1 nM. Under these conditions, the measured Ki, app is close to true Ki.
The K, for a competitive inhibitor is calculated using: V0/vi=(1+[I]/Ki, app) and Ki=Ki, app/(1+[S]/Km), where v0 is the initial rate in the absence of inhibitor, vi is the initial rate in the presence of inhibitor at the concentration of [I], [S] is the substrate concentration, and Km is the Michaelis constant. If slow binding is observed (i.e. if the approach to the binding equilibrium is slow), the final steady-state rate rather than the initial rate is taken as vi.

MMP-2 = biological target: T2, MMP-2 (Homo sapiens, UniProt P08253); experiment: Determination of inhibition constant (Ki) for MMP-2, fluorogenic substrate; conditions: footnote: results are identical for MMP-1, MMP-2, MMP-3, MMP-13 and MMP-14, read-out: MMP Ki app
T2 construct: made in house; host or cells: Pichia pastoris (vector pHIL-D2; strains KM71 and SMD1168; clone 24S)
T2 sequence (P08253 110-660): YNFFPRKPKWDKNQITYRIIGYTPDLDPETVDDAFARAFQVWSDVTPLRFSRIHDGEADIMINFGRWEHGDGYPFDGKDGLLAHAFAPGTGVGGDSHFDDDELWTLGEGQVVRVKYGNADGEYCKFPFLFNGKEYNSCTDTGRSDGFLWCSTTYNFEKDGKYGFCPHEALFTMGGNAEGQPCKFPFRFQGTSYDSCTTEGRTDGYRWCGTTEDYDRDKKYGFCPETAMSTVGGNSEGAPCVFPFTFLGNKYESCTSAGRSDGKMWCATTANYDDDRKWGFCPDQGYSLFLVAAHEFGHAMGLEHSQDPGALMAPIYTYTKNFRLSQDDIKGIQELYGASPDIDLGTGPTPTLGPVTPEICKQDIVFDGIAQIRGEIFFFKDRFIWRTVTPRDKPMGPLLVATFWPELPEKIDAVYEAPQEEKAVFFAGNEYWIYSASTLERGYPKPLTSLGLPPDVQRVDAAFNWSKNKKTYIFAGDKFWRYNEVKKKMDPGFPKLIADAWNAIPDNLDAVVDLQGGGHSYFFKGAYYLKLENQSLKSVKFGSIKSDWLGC
Description: Recombinant MMP-2 was purified from the fermentation broth of yeast Pichia pastoris that carries the integrated MMP-2 gene into its chromosome. In brief, the full-length cDNA for MMP-2 was obtained by reverse transcription of RNA from human melanoma A375M cell line by the reverse transcriptase polymerase chain reaction (RT-PCR) using sequence specific oligonucleotides. The nucleotide sequence was confirmed by Taq cycle sequencing. The cDNA was ligated into the Pichia pastoris expression vector pHIL-D2 in such a way that the expression of pro-MMP-2 is under the control of the methanol inducible alcohol oxidase promoter. The expression construct was digested with either SalI or NsiI and used to transform the Pichia pastoris strains KM71 and SMD1 168. A large-scale culture of a selected clone designated 24S was performed in a high cell density fermentor and the recombinant MMP-2 was purified from the culture supernatant by gelatin-sepharose 4B (Pharmacia). The enzyme is sufficiently pure at this stage for routine measurement of inhibition. If desired, however, the enzyme may be further purified by AcA 44 gel filtration (Spectra).
The active MMP-2 was obtained by activation of proMMP-2 at 37° C. for 1 h with 4-aminophenylmercuric acetate which was then removed by a Sephadex G-50 spin column. The enzyme is assayed using a fluorogenic substrate, Mca-Pro-Leu-Gly-Leu-Dpa-Ala-Arg-NH2, at 37° C. in 2.0 mL of assay buffer containing 50 mM Tris, pH 7.6, 0.2 M sodium chloride, 50 mM calcium chloride, 0.02% Brij-35, and 50 μM β-mercaptoethanol. The increase in fluorescence is monitored (λex 328 nm, λem 393 nm). Substrate and inhibitor stock solutions are made in DMF. The enzyme is added at the last to start the reaction. For routine measurement of a Ki value for a reversible, competitive inhibitor, the initial rates in the presence of at least four inhibitor concentrations (two inhibitor concentrations above Ki and two below Ki) are measured using [S]=1 μM (<<Km) and [MMP-2]=0.4 nM. Under these conditions, the measured Ki, app is close to true Ki.

MMP-14 = MMP-14 (Homo sapiens, UniProt P50281); experiment: Ki app for MMP-14; conditions: footnote: results are identical for MMP-1, MMP-2, MMP-3, MMP-13 and MMP-14
MMP-13 = MMP-13 (Homo sapiens, UniProt P45452); experiment: Ki app for MMP-13; conditions: footnote: results are identical for MMP-1, MMP-2, MMP-3, MMP-13 and MMP-14

| Ki (MMP-3) [µM] | Ki (MMP-2) [µM] | Ki (MMP-14) [µM] | Ki (MMP-13) [µM] | Structure (SMILES) |
| --- | --- | --- | --- | --- |
| > 10 | > 10 | > 10 | > 10 | CNC(=O)[C@@H](Cc1cccnc1)NC(=O)[C@@H]1C(Cc2ccccc2)CCN1C(=O)[C@@H](S)C(C)C (stereo in doubt) [Compound 1f, (2S,3S)-3-Benzyl-1-((S)-2-mercapto-3-methyl-butanoyl)-pyrrolidine-2-carboxylic acid ((R)-1-methylcarbamoyl-2-pyridin-3-yl-ethyl)-amide] |
| > 10 | > 10 | > 10 | > 10 | CNC(=O)[C@H](Cc1ccc(O)cc1)NC(=O)[C@@H]1[C@@H](Cc2ccccc2)CCN1C(=O)[C@@H](S)C(C)C [Compound 1a, (2S,3S)-3-Benzyl-1-((S)-2-mercapto-3-methyl-butanoyl)-pyrrolidine-2-carboxylic acid [(S)-2-(4-hydroxy-phenyl)-1-methylcarbamoyl-ethyl]-amide] |
| > 10 | > 10 | > 10 | > 10 | CNC(=O)[C@H](Cc1ccc(O)cc1)NC(=O)[C@@H]1[C@H](Cc2ccccc2)CCN1C(=O)[C@@H](S)C(C)C [Compound 1b, (2S,3R)-3-Benzyl-1-((S)-2-mercapto-3-methyl-butanoyl)-pyrrolidine-2-carboxylic acid [(S)-2-(4-hydroxy-phenyl)-1-methylcarbamoyl-ethyl]-amide] |
| > 10 | > 10 | > 10 | > 10 | CNC(=O)[C@H](Cc1cccnc1)NC(=O)[C@@H]1[C@@H](Cc2ccccc2)CCN1C(=O)[C@@H](S)C(C)C [Compound 1c, (2S,3S)-3-Benzyl-1-((S)-2-mercapto-3-methyl-butanoyl)-pyrrolidine-2-carboxylic acid ((S)-1-methylcarbamoyl-2-pyridin-3-yl-ethyl)-amide] |
| > 10 | > 10 | > 10 | > 10 | CNC(=O)[C@H](Cc1cccnc1)NC(=O)[C@@H]1[C@H](Cc2ccccc2)CCN1C(=O)[C@@H](S)C(C)C [Compound 1d, (2S,3R)-3-Benzyl-1-((S)-2-mercapto-3-methyl-butanoyl)-pyrrolidine-2-carboxylic acid ((S)-1-methylcarbamoyl-2-pyridin-3-yl-ethyl)-amide] |
| > 10 | > 10 | > 10 | > 10 | CNC(=O)[C@@H](Cc1cccnc1)NC(=O)[C@@H]1[C@@H](Cc2ccccc2)CCN1C(=O)[C@@H](S)C(C)C [Compound 1e, (2S,3S)-3-Benzyl-1-((S)-2-mercapto-3-methyl-butanoyl)-pyrrolidine-2-carboxylic acid ((R)-1-methylcarbamoyl-2-pyridin-3-yl-ethyl)-amide] |
| > 10 | > 10 | > 10 | > 10 | CNC(=O)[C@@H](NC(=O)[C@@H]1[C@@H](Cc2ccccc2)CCN1C(=O)[C@@H](S)C(C)C)C(C)(C)C [Compound 1g, (2S,3S)-3-Benzyl-1-((S)-2-mercapto-3-methyl-butanoyl)-pyrrolidine-2-carboxylic acid ((S)-2,2-dimethyl-1-methylcarbamoyl-propyl)-amide] |
| > 10 | > 10 | > 10 | > 10 | CNC(=O)[C@@H](NC(=O)[C@@H]1[C@H](Cc2ccccc2)CCN1C(=O)[C@@H](S)C(C)C)C(C)(C)C [Compound 1h, (2S,3R)-3-Benzyl-1-((S)-2-mercapto-3-methyl-butanoyl)-pyrrolidine-2-carboxylic acid ((S)-2,2-dimethyl-1-methylcarbamoyl-propyl)-amide] |

Reference: US6486193B2, “3-substituted pyrrolidines useful as inhibitors of matrix metalloproteinases” (Aventis Pharmaceuticals Inc., priority 1998, dated 2002)
